“Also recorded” adds a separate entry of the source. Non-standard residues stand in square brackets, D forms with d. Residues, ends and D or L forms follow the SMILES beside them. *: point of attachment. Dolaproine = CO[C@@H]([C@@H]1CCCN1)[C@@H](C)C(=O)O; Dil = CC[C@H](C)[C@H](NC)[C@@H](CC(=O)O)OC; X2 = C[C@@H](N*)[C@@H](O)c1ccccc1; NMeV = CN[C@H](C(=O)O)C(C)C
Assays:
[1] = Chronic toxicity study, intravenous once every 3 weeks, rats; type: in vivo
Text: (§1) Chronic toxicity study of Conjugate (1) product on Rats and rabbits.
(§2) • 1. Conjugate (I). • 2. Solubilizer Pluronic F127—in the amount, five-fold greater than the conjugate amount by weight. • 3. Diluent—Haemodes infusion solution. • 4. Dimethyl sulfoxide—in the amount of 5% of the prepared volume.
(§3) A 1 00 white ° inbred mature male rats about 2 months old with a body weight of 190-210 g and 60 sexually mature male rabbits of the Soviet Chinchilla breed about 2 months old with a body weight of […] were involved in the experiment.
(§4) The study design determined the intravenous administration of the test drugs once every 3 weeks for 3 months (a total of 4 injections) for the experiment of chronic toxicity determination. The local irritant effect of the products within intravenous administration will be studied together with the chronic toxicity study.
(§5) Each animal received the intravenous injection of the test drug or the reference drug in a volume not exceeding the acceptable volume for a single injection of 2 mL for rats and 20 mL for rabbits. The products were replaced with a Pluronic solution with DMSO in Haemodes in the control group of animals. The duration of observation for laboratory animals was 4 weeks (intermediate stage).
(§6) Apparent signs of intoxication were evaluated daily. During the study, integral indicators of animal health were recorded (see Tables 15. 16, 17).

[2] = Chronic toxicity study, intravenous once every 3 weeks, rabbits; type: in vivo
Text: as §1, §2, §3, §4, §5, §6

Compound: CC[C@H](C)[C@@H]([C@@H](CC(=O)N1CCC[C@H]1[C@H](OC)[C@@H](C)C(=O)N[C@H](C)[C@@H](O)c1ccccc1)OC)N(C)C(=O)[C@@H](NC(=O)[C@@H](NC)C(C)C)C(C)C [MMAE, Monomethyl auristatin E] (H-[NMeV]V[Dil][Dolaproine]-X2)
- Signs of intoxication ([1]; male rats, group 5, 10 μg/kg intravenously 1 time in 3 weeks): with impaired movement; also recorded: coordination, shortness of breath,; also recorded: diarrhea; also recorded: position, tremor, the hind limb; also recorded: the hindlimb paresis; rats No. 3-5 -; also recorded: decreased motor activity, the hind; also recorded: hindlimb paresis, porphyrin secretion
- Signs of intoxication: loss of body weight ([1]; male rats, group 5, 10 μg/kg, 30 Apr. 2019): 15 to 20 g
- Necropsy ([1]; male rats, group 5, 10 μg/kg, animals No. 1, 5, 6 and No. 3): severely inflated; adrenal glands were 2-fold; also recorded: increase; blood in the kidneys, pink renal pelvis; also recorded: hemorrhages and ulcers; the kidneys were pale,; also recorded: liver was granular, palish
- Animals survived up to the second injection ([1]; rats, chronic, reference drug): only one rat animal
- Chronic toxicity (overall) ([1]; rats, i.v. once every 3 weeks, intermediate stage 4 weeks): high toxicity
- Signs of intoxication: the intake of feed and water ([2]; male rabbits, group 10, 5.4 μg/kg, after administration): decreased. About a day after
- Signs of intoxication ([2]; male rabbits, group 10, 5.4 μg/kg, about a day after administration and before death): superficial respiration and adynamia
- Necropsy ([2]; male rabbits, group 10, 5.4 μg/kg, rabbit No. 4): grayish tint; thymus had hemorrhages;
- Animals survived up to the second injection ([2]; rabbits, chronic, reference drug): no rabbits
- Chronic toxicity (overall) ([2]; rabbits, i.v. once every 3 weeks, intermediate stage 4 weeks): high toxicity

— patent publication US12454527B2, “Conjugate monomethyl auristatin E to obtain a composition for treatment of prostate cancer” (priority 2019, dated 2025)
